Values quoted from earlier work in patent US8173824B2, “Process for producing vitamin D derivative using convergent method” (Chugai Seiyaku Kabushiki Kaisha, priority 2005, dated 2012).

Columns and labels:
[1] = compared with the conventional vitamin D derivatives; background statement
human keratinocyte = details: background statement, see WO 2001/096293

For `C=C1/C(=C\C=C2/CCC[C@]3(C)C([C@H](C)OCC(=O)NCC(F)(F)C(F)(F)F)=CCC23)C[C@@H](O)C[C@@H]1O` (stereo partly drawn) [Formula (1), [{(5Z,7E)-(1S,3R,20S)-1,3-dihydroxy-9,10-secopregna-5,7,10(19),16-tetraen-20-yl}oxy]-N-(2,2,3,3,3-pentafluoropropyl)acetamide], the calcium level-raising activity [1] is listed as “lower than the conventional vitamin D derivatives” and the “human keratinocyte growth inhibition activity” value (human keratinocyte) is listed as “exhibits useful human keratinocyte growth inhibition activity”.
